Laboratory results reported in ChEMBL document CHEMBL1201862, “PubChem BioAssay data set” (2004).
Several values for one entry are separate records, joined by “and”; a condition that tells them apart may be missing. Identical values can stand only once. Activity calls are given as the source filed them.

Assays:
[1] = target: T1, Eukaryotic translation initiation factor 2-alpha kinase 3 (Homo sapiens, UniProt Q9NZJ5); test: Counterscreen assay for PERK inhibitors: Dose response cell-based high throughput screening assay to measure inhibition of PERK at 6 hours. [Related pubchem assays: 1522, 1416 ]; assay type: functional
[2] = target: T1, Eukaryotic translation initiation factor 2-alpha kinase 3; test: Dose response cell-based high-throughput screening assay to measure PERK inhibition. [Related pubchem assays: 1416 ]; assay type: functional
[3] = target: Acyl-homoserine lactone acylase PvdQ (Pseudomonas aeruginosa (strain LESB58), UniProt Q9I194); test: P. aeruginosa PvdQ acylase inhibitors, dose response, biochemical, fluorescence, plate reader and imaging, cherry-picks (AID 493231)
[4] = target: Cytochrome P450 2C9 (Homo sapiens, UniProt P11712); settings: Potency
[5] = target: Cytochrome P450 2D6 (Homo sapiens, UniProt P10635); test: qHTS Assay for Inhibitors and Substrates of Cytochrome P450 2D6. [Related pubchem assays: 410 ]; assay type: ADME; settings: read-out: Potency
[6] = target: C-C chemokine receptor type 6 (Homo sapiens, UniProt P51684); test: CCR6 receptor antagonists, dose response, cell-based, luminescent beta-arrestin readout (AID 504728); assay type: functional
[7] = target: T2, Beta-galactosidase (Escherichia coli, UniProt Q8VNN2); test: beta-galactosidase enzyme inhibitors and activators, dose response, artefact control for CCR6 antagonist project, biochemical, E. coli enzyme, set 3 (AID 504712); assay type: functional
[8] = Luminescence Cell-Based Dose Retest to Confirm Inhibitors of Cancer Stem Cells. [Related pubchem assays (depositor defined):AID2717, AID2721]; assay type: functional; settings: Homo sapiens
[9] = target: Sphingosine 1-phosphate receptor 4 (Homo sapiens, UniProt O95977); test: S1P4 receptor agonists, human, late-stage follow-up, cell-based, fluorescence, synthesized compounds (AID 463107); assay type: functional
[10] = target: CAAX prenyl protease 2 (Homo sapiens, UniProt Q9Y256); test: human Rce1 protease inhibitors, dose response, biochemical, yeast membranes, quenched-peptide fluorescence, cherry-pick (AID 588849)
[11] = target: CAAX prenyl protease 2 (Saccharomyces cerevisiae S288c, UniProt Q03530); assay type: biochemical
[12] = inhibition of K1F phage lysis, E. coli UTI89, bacterial capsule biogenesis inhibitors, alamar blue (AID 488966); assay type: functional
[13] = test system: Vero; test: cells; assay type: functional; settings: Chlorocebus sabaeus
[14] = target: T3, Microphthalmia-associated transcription factor (Homo sapiens, UniProt O75030); test: TRPM1 promoter luciferase signal decrease, dose response, MITF inhibitor project, cell-based, SK-MEL-5, cherry-picked, set 3 (AID 493073); assay type: functional
T3 sequence (O75030 whole entry): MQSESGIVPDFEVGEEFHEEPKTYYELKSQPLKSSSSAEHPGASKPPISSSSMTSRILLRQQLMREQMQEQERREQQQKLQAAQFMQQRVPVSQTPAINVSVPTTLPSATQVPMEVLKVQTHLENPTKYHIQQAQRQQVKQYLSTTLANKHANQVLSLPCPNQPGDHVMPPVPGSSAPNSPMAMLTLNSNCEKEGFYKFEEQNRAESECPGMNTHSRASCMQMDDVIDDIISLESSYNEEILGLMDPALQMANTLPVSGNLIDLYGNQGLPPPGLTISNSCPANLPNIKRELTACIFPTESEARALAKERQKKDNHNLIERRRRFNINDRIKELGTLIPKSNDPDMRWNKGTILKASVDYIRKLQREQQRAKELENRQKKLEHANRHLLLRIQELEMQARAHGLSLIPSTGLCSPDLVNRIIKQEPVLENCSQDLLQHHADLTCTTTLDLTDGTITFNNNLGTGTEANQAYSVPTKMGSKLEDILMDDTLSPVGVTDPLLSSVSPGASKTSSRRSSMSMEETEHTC

[15] = cells; assay type: functional, cell-based
[16] = cells; assay type: functional, cell-based; remark: listed apart in the source
[17] = cytotoxicity toward NIH3T3 fibroblasts, dose response, counter-screen, cell-based, ATP luminescence, mouse fibroblasts (AID 2010); assay type: functional;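 further: cells exposed to compound for about 90 hours before reading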
[18] = target: T4, Kappa-type opioid receptor (Homo sapiens, UniProt P41145); assay type: functional
[19] = target: T2, Beta-galactosidase; assay type: functional
[20] = inhibitors of intracellular T. cruzi replication, confirmation, NIH3T3 host cells, beta-gal luminescence (AID 2044); assay type: functional, cell-based;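 further: intracellular parasites grown in NIH/3T3 mouse fibroblasts as host cells; luminescent beta-galactosidase reporter signal from transgenic T. cruzi replicating inside host cells; inhibitors lower the luminescence signal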
[21] = target: T4, Kappa-type opioid receptor; assay type: functional; remark: listed apart in the source
[22] = test system: INS1; test: beta cell apoptosis inhibitors, cytokine rescue, dose response, luminescence, retest (AID 449756); assay type: functional, cell-based; settings: Rattus norvegicus;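 further: cell death triggered by IL-1 beta plus TNF-alpha plus IFN-gamma mixture; protective hits raise ATP signal compared with cytokine alone wells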
[23] = target: Potassium voltage-gated channel subfamily KQT member 2 (Rattus norvegicus, UniProt O88943); test: retigabine-insensitive KCNQ2 potentiators, concentration-response, dose response, cell-based, retigabine-insensitive compounds (AID 2654); assay type: functional
[24] = target: Glucose-6-phosphate 1-dehydrogenase (Homo sapiens, UniProt P11413); test: human G6PD enzyme inhibitors, dose response, selectivity assay for P. falciparum G6PD inhibitor project, biochemical, fluorescence (AID 504792); assay type: functional
[25] = target: DNA dC->dU-editing enzyme APOBEC-3G (Homo sapiens, UniProt Q9HC16); test: Dose Response confirmation of small molecule APOBEC3G DNA Deaminase Inhibitors via a fluorescence-based single-stranded DNA deaminase assay. [Related pubchem assays (depositor defined):AID493012, AID493028]; assay type: functional
[26] = target: T5, Voltage-gated N-type calcium channel alpha-1B subunit/Amyloid beta A4 precursor protein-binding family A member 1 (Homo sapiens, UniProt Q00975+Q02410); assay type: protein assay
[27] = growth suppression of beta-catenin-knockout colon cells, dose response, cell-based, HCT116, human colon tumor (AID 1045); assay type: functional;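 further: HCT116 colon tumor cells with beta catenin knocked out; cells exposed to compound for 60 hours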
[28] = target: T5, Voltage-gated N-type calcium channel alpha-1B subunit/Amyloid beta A4 precursor protein-binding family A member 1; assay type: protein assay; remark: listed apart in the source
[29] = target: Large T antigen (Simian virus 40, UniProt P03070); assay type: functional, Betapolyomavirus macacae;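 further: Confirmatory-stage PubChem screen for compounds that inhibit SV40 T antigen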
[30] = growth suppression of PTEN-null colon cells, dose response, cell-based, HCT116 PTEN knockout (AID 1047); assay type: functional;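 further: HCT116 colon tumor cells with PTEN knocked out; cells exposed to compound for 60 hours before readout; potency for loss of cell viability measured by luminescence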
[31] = target: Glyceraldehyde-3-phosphate dehydrogenase (Homo sapiens, UniProt P04406)
[32] = target: T6, Dual specificity protein phosphatase 3 (Homo sapiens, UniProt P51452); test: SAR VHR1 Fluorescent Assay for In Vitro dose response studies. [Related pubchem assays (depositor defined):AID1654, AID1661, AID1878, AID1992, AID2004, AID2070, AID2085]; assay type: functional
[33] = target: T7, Tyrosine-protein phosphatase non-receptor type 7 (Homo sapiens, UniProt P35236); test: redox-dependent HePTP inhibition, mechanism study, biochemical, fluorescence (AID 2068); assay type: functional
T7 sequence (P35236 whole entry): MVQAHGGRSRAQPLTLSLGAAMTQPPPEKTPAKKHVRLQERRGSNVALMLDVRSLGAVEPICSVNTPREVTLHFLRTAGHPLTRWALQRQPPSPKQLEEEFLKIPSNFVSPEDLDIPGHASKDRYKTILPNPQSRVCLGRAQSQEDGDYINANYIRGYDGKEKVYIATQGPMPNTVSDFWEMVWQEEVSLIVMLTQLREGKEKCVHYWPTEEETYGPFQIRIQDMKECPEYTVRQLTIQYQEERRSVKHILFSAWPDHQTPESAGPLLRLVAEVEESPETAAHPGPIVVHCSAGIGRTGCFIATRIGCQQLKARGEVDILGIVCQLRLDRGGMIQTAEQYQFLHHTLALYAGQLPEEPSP

[34] = target: T7, Tyrosine-protein phosphatase non-receptor type 7; assay type: functional
[35] = target: T8, Dual specificity protein phosphatase 6 (Rattus norvegicus, UniProt Q64346); assay type: functional
T8 sequence (Q64346 whole entry): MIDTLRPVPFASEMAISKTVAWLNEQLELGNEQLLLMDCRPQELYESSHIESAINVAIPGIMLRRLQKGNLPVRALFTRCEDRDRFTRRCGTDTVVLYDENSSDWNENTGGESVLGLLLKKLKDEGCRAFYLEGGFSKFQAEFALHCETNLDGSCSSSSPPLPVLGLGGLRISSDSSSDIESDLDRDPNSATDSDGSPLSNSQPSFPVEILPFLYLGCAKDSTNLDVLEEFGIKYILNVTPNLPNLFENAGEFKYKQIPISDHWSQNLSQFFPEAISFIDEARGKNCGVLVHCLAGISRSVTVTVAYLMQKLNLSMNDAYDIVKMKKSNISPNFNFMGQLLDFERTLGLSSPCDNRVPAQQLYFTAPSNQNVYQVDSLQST

[36] = target: T6, Dual specificity protein phosphatase 3; test: MOA VHR1 Fluorescent secondary assay for identification of redox-state modulating compounds. [Related pubchem assays (depositor defined):AID1654, AID1661, AID1878, AID1957]
[37] = target: T8, Dual specificity protein phosphatase 6
[38] = target: T9, Mannose-6-phosphate isomerase (Homo sapiens, UniProt P34949); test: Confirmation of compounds inhibiting phosphomannose isomerase (PMI) via a fluorescence intensity assay using a high concentration of mannose 6-phosphate. [Related pubchem assays (depositor defined):AID1209, AID1220, AID1545, AID1553, AID1620]
T9 sequence (P34949 whole entry): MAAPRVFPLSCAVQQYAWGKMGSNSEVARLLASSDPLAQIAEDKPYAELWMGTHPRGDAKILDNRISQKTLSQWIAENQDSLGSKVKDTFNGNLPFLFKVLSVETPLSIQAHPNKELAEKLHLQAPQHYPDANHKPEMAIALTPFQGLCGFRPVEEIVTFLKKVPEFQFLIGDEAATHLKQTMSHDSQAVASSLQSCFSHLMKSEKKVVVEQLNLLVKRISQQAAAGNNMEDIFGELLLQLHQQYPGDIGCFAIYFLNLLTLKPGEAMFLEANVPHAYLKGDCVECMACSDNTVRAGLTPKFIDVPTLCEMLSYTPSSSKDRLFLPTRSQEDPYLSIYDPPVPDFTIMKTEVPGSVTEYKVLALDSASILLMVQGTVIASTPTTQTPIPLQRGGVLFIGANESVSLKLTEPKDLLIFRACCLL

[39] = target: Alkaline phosphatase, placental type (Homo sapiens, UniProt P05187); test: PLAP enzyme inhibitors, confirmation, biochemical, luminescence (AID 1512); assay type: functional
[40] = target: T9, Mannose-6-phosphate isomerase; test: PMI enzyme inhibitors, confirmation, biochemical, fluorescence intensity (AID 1535)
[41] = target: Phosphomannomutase 2 (Homo sapiens, UniProt O15305); test: Counter screen SAR assay for PMM2 inhibitors via a fluorescence intensity assay. [Related pubchem assays (depositor defined):AID1545, AID1574]
[42] = target: Phosphoethanolamine/phosphocholine phosphatase (Homo sapiens, UniProt Q8TCT1); test: SAR assay for compounds that inhibit PHOSPHO1. [Related pubchem assays (depositor defined):AID1545, AID1565, AID1574]
[43] = test system: Trypanosoma cruzi; test: growth inhibition of intracellular Trypanosoma cruzi, dose response, cell-based, plate reader, dry powder, set 3 (AID 493197); assay type: functional
[44] = cytotoxicity in NIH/3T3 mouse fibroblasts, dose response, cytotoxicity control, cell-based, mouse embryonic fibroblasts, dry powder, set 2 (AID 493247); assay type: functional; settings: Fibroblast

T4 sequence (P41145 whole entry): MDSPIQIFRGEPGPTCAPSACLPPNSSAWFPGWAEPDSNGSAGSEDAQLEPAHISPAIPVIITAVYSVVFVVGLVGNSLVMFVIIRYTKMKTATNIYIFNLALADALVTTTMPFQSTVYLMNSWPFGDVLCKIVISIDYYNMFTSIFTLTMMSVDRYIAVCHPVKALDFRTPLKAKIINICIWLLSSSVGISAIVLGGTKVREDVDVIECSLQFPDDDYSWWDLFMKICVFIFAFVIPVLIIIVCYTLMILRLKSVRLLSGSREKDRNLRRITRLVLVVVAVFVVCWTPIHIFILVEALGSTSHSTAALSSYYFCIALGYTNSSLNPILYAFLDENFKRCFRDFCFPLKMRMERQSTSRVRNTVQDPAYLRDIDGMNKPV
T1 sequence (Q9NZJ5 whole entry): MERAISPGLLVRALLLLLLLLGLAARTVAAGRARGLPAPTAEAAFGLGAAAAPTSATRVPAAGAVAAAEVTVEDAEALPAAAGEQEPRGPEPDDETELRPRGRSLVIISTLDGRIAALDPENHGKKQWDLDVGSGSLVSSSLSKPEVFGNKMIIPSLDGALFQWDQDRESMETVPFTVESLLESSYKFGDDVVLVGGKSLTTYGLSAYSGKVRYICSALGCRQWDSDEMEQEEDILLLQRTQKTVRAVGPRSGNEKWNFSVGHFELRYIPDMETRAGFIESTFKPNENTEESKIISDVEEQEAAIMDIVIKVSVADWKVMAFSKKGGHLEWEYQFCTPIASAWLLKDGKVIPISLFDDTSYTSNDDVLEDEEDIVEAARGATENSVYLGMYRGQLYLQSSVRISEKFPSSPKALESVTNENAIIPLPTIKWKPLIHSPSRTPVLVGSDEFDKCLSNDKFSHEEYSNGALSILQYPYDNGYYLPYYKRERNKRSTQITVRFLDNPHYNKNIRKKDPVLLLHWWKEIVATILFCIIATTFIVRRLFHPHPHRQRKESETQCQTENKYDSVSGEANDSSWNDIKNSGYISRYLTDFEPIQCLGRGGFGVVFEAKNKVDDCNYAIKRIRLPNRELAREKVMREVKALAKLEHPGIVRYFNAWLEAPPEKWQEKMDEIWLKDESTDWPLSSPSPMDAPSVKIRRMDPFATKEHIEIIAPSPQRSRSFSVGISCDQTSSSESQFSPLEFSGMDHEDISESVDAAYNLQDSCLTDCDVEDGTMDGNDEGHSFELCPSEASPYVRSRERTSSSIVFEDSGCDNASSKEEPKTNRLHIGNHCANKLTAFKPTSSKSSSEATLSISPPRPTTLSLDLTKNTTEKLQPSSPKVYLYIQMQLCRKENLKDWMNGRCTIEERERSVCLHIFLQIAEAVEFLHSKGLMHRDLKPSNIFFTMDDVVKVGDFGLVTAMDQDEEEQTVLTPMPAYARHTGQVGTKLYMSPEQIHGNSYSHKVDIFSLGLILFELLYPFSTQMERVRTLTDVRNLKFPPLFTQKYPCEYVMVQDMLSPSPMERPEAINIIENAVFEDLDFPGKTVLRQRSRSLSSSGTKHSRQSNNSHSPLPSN
T6 sequence (P51452 whole entry): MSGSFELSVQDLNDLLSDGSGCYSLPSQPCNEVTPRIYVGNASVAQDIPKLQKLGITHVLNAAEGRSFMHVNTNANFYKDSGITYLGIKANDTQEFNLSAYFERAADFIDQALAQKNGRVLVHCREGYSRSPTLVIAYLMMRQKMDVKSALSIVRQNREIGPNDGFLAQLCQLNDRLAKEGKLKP
T2 sequence (Q8VNN2 whole entry): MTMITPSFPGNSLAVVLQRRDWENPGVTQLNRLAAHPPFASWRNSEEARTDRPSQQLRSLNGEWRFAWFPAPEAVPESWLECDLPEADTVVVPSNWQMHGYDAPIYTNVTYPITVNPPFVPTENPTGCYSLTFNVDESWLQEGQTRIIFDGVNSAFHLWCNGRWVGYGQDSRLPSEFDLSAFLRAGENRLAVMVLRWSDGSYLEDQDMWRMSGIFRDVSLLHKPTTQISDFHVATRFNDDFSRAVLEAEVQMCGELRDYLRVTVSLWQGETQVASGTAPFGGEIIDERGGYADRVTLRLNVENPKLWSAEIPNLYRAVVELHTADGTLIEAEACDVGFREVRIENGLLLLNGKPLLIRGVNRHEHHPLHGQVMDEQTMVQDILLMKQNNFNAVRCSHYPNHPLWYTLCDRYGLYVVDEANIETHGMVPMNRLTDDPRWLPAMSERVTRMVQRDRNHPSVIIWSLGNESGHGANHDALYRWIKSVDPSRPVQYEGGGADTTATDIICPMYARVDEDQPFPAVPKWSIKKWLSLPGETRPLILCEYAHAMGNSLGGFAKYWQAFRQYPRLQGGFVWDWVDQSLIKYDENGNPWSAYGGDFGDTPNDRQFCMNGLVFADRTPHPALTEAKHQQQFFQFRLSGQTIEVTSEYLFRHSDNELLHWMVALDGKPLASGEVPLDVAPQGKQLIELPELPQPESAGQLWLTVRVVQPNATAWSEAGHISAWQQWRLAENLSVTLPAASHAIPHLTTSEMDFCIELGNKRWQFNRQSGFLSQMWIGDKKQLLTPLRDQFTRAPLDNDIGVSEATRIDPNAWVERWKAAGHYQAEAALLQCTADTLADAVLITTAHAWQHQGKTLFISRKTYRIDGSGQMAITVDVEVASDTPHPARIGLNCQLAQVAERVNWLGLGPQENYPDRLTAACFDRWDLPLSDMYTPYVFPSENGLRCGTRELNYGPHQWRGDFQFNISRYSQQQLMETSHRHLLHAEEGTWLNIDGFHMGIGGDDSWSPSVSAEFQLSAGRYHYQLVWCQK
Chain of Cytochrome P450 2D6 (P10635 whole entry): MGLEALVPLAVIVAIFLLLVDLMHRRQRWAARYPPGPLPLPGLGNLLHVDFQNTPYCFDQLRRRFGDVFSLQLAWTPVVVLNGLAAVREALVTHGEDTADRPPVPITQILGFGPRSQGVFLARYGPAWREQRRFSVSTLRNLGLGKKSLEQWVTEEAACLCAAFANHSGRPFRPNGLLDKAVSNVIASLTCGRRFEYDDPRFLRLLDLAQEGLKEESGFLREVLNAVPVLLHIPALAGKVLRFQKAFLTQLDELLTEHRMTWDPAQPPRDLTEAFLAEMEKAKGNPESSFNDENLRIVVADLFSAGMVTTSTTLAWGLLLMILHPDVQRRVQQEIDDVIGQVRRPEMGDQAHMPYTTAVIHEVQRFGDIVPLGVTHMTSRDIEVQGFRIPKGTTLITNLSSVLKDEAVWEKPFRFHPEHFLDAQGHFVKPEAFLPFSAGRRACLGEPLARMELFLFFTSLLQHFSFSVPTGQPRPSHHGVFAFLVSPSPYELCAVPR
Chain of DNA dC->dU-editing enzyme APOBEC-3G (Q9HC16 whole entry): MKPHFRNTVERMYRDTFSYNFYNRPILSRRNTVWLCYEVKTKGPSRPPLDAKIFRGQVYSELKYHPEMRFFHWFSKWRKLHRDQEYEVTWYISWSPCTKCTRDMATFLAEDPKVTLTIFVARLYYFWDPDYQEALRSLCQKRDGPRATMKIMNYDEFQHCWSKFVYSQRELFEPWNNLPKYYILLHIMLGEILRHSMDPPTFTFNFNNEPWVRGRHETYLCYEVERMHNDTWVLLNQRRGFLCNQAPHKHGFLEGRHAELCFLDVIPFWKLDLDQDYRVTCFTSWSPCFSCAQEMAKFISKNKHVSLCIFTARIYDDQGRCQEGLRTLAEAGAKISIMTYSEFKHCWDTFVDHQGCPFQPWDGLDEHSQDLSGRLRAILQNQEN
Chain of Large T antigen (P03070 whole entry): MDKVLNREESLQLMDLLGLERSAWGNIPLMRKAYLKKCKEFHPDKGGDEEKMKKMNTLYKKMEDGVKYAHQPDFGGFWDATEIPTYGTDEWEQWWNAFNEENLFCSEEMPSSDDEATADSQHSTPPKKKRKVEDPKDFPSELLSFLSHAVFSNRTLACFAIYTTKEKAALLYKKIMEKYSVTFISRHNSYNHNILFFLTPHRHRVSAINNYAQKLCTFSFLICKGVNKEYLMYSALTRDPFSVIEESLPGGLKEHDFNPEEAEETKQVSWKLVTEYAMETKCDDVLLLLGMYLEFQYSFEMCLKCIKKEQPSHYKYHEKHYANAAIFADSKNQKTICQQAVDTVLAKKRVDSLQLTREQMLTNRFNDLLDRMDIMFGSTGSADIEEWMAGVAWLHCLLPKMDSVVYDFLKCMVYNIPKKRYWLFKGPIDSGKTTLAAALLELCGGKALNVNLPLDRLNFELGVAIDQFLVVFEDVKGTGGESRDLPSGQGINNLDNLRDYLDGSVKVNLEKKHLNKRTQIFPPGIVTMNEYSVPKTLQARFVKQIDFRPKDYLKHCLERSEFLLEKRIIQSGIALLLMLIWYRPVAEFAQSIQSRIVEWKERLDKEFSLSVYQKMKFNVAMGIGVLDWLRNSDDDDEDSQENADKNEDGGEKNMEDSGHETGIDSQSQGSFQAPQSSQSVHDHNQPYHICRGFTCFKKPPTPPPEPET
Chain of Acyl-homoserine lactone acylase PvdQ (Q9I194 24-193 limits assumed): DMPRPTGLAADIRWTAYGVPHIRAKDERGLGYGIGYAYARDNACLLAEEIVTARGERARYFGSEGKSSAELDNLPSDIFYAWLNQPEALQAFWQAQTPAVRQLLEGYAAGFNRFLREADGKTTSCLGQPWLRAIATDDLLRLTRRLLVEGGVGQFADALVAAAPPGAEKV
Chain of Acyl-homoserine lactone acylase PvdQ (Q9I194 217-762 limits assumed): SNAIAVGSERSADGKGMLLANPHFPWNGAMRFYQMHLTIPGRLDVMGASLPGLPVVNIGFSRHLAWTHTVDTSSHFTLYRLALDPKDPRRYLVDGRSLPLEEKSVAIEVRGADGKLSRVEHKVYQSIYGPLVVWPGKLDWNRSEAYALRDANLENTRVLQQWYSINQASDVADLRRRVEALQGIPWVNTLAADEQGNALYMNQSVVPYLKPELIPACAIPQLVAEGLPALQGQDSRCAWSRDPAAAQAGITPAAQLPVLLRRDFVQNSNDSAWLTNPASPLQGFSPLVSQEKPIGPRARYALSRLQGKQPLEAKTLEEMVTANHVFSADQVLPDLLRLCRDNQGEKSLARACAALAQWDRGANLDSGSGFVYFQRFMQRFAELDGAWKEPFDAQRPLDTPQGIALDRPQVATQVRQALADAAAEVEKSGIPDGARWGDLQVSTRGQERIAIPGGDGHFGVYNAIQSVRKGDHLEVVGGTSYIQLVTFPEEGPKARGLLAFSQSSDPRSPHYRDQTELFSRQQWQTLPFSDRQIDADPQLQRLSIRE

Cc1cc2c(NC(=O)Nc3ccc(F)cc3)cccc2nn1
EC50 [1]: > 55.7 µM (not active) | EC50 [2]: > 55.7 µM (not active)

CCNC(=O)COc1ccc2ccccc2c1
AC50 [3]: 11.7 µM (active)

COC(=O)[C@@H]1[C@H]2C[C@H]3c4[nH]c5cc(OC)ccc5c4CCN3C[C@@H]2C[C@@H](OC(=O)c2cc(OC)c(OC)c(OC)c2)[C@@H]1OC
AC50 [4]: 15.8 µM (inconclusive) | AC50 [5]: 39.8 µM (inconclusive) and 12.6 µM (inconclusive)

C=C(CC[C@@H](O)C(C)(C)O)[C@H]1CC[C@]2(C)[C@@H]1CC[C@@H]1[C@@]3(C)CC[C@H](O)C(C)(C)C3CC[C@]12C (stereo not given in full)
IC50 [6]: > 66.6 µM (inactive) | IC50 [7]: > 66.6 µM (inactive) | AC50 [8]: 0.561 µM (active)

Cc1ccc(OCCOc2ccc(C)nc2[N+](=O)[O-])c([N+](=O)[O-])n1
EC50 [9]: > 50 µM (inactive)

Cc1cc(C)nc(SCc2cn3c(C)cc(C)nc3n2)n1
AC50 [10]: 35.2 µM (active) | AC50 [11]: 35.7 µM (active)

Cc1nc(NC(=O)c2ccco2)sc1C(=O)Nc1ccc(Br)cc1
IC50 [12]: > 75 µM (active)

C/C(=N\NC(=O)Cc1ccc(Cl)cc1)c1ccccn1
CC50 [13]: 2.29 µM (active) | AC50 [14]: 4.22 µM (active) | EC50 [15]: 54.9 µM (active) | EC50 [16]: 57.6 µM (active) | EC50 [17]: < 6 µM (inconclusive) | IC50 [18]: 5.02 µM (active) | EC50 [19]: > 31.5 µM (inactive) | EC50 [20]: 0.635 µM (active) | IC50 [21]: > 32 µM | AC50 [22]: 1.05 µM (active)

Cc1cccc(NC(=O)Nc2cccnc2)c1C
EC50 [23]: 16 µM (active)

Cc1cc(C)c2c(=O)n(CC(=O)N3CCC(N4CCCCC4)CC3)sc2n1
IC50 [24]: 37 µM (inactive) | IC50 [25]: 9.83 µM (active) | IC50 [26]: 16.2 µM (active) | EC50 [27]: 18.6 µM (active) | IC50 [28]: > 50 µM (inactive) | IC50 [29]: 28.1 µM (active) | EC50 [30]: 22.6 µM (active)

O=c1/c(=C/c2ccc(-c3ccccc3[N+](=O)[O-])o2)sc2nc3cc(Br)cnc3n12
IC50 [31]: > 100 µM (not active) | IC50 [32]: 12.1 µM (active) | IC50 [33]: 4.13 µM (active) | IC50 [34]: 43.9 µM (active) | IC50 [35]: 55.5 µM (active) | IC50 [36]: 5.53 µM (active) | IC50 [37]: 49 µM (active)

CCCCN1C(=O)/C(=N\Nc2ccccc2O)c2ccccc21
IC50 [38]: > 100 µM (inactive) | IC50 [39]: > 100 µM (inactive) | IC50 [40]: > 100 µM (inactive)

Cc1c(Cl)cccc1-n1sc2cc(F)ccc2c1=O
IC50 [41]: 8.74 µM (active) | IC50 [42]: 1.53 µM (inactive) | IC50 [40]: 28.6 µM (active)

O=C(N/N=C/c1ccc([N+](=O)[O-])o1)c1ccccn1
AC50 [43]: 1.47 µM (active) | AC50 [44]: 28 µM (active)
